This passage reports IC50 results from patent US9790201B2, “Piperidine and azepine derivatives as prokineticin receptor modulators” (TAKEDA PHARMACEUTICAL COMPANY LIMITED, priority 2013, dated 2017).

The target in the assay is human PKR1 receptors (Homo sapiens (Human), UniProt Q8TCW9). Kind of assay: PKR1 antagonist assay: block of PK1-mediated intracellular calcium release (FLIPR Tetra). It counts as cell-based. Conditions: RBL2H3 cells expressing human PKR1; stimulation with PK1 at EC80; calcium fluorescence. On the procedure: Prokineticin receptor 1 (PKR1) antagonists may be functionally assessed by measurement of change in intracellular calcium levels induced by Gq mediated increase in inositol triphosphate (IP3) levels. The ability of a compound to block the intracellular release of calcium mediated by PK1 in RBL2H3 cells expressing human PKR1 receptors is determined as a measure of the compound's antagonist activity in vitro.
human PKR1 receptors, sequence (Q8TCW9 whole entry): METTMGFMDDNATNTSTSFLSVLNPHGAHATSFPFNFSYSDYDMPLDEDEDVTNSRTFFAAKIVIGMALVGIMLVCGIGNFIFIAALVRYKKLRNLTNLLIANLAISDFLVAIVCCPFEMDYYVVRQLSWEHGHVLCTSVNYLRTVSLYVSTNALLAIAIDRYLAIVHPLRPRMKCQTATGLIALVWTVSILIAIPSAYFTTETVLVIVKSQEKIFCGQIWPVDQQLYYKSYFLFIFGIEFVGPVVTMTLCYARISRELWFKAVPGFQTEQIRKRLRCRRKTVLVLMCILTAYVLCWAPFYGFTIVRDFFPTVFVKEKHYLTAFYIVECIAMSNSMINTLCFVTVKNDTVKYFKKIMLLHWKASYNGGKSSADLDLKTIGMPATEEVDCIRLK
Approximately 10,000 cells per assay well are seeded in normal culture medium in a 384 well plate (Corning). Twenty-four hours after seeding, the cells are loaded with a calcium sensitive fluorescent dye by replacing the culture medium with assay buffer (1× Hanks buffered saline, 25 mM HEPES, 0.1% w/v fatty acid free BSA (bovine serum albumin), pH 7.4) containing 1 mM probenecid and 1× Calcium 5 Reagent (Molecular Devices). Cells are incubated at 37° C. for 1 hour to allow for dye uptake.
To test for antagonist activity, test compounds at a final concentration range between 0.32 nM-10 μM (diluted in assay buffer) are added to the assay wells and allowed to incubate for 10 minutes prior to stimulation with PK1. After incubation with test compounds the assay plate is placed in a FLIPR Tetra (Molecular Devices) and PK1 (diluted in assay buffer) is added at the determined EC80 concentration (final). Ligand-dependent changes in intracellular calcium levels are determined by measuring changes in fluorescence of the dye at […] following excitation at 485 nm.
In general terms: Calcium assays in cells follow changes in intracellular calcium, usually with a dye or a luminescent sensor.
Broadly, the IC50 is the concentration at which inhibition is half-maximal. For the compound `CNc1cc(C(=O)N2CCCC(c3ccc(Cl)cc3C(F)(F)F)C2)cnn1` (stereo not shown) [Example 76, 5-({3-[4-Chloro-2-(trifluoromethyl)phenyl]piperidin-1-yl}carbonyl)-N-methylpyridazin-3-amine], the concentration for half-maximal inhibition (IC50) amounted to 80 nM.
As to `O=C(c1cnnc(N2CCC2)c1)N1CCCC(c2ccc(Cl)cc2C(F)(F)F)C1` (stereo not shown) [Example 77, 3-(Azetidin-1-yl)-5-({3-[4-chloro-2-(trifluoromethyl)phenyl]piperidin-1-yl}carbonyl)pyridazine], the 50% inhibitory concentration (IC50) turned out to be 730 nM.
The same measure for `CNc1cc(C(=O)N2CCCC(c3ccc(C(F)(F)F)cc3OC)C2)cnn1` (stereo not shown) [Example 78, 5-({3-[2-Methoxy-4-(trifluoromethyl)phenyl]piperidin-1-yl}carbonyl)-N-methylpyridazin-3-amine]: 3000 nM; for `CNc1cc(C(=O)N2CCCC(c3ccc(OC)cc3C)C2)cnn1` (stereo not shown) [Example 79, 5-{[3-(4-Methoxy-2-methylphenyl)piperidin-1-yl]carbonyl}-N-methylpyridazin-3-amine]: 130 nM; for `COc1ccc(C2CCCN(C(=O)c3cnnc(N(C)C)c3)C2)c(C)c1` (stereo not shown) [Example 80, 5-{[3-(4-Methoxy-2-methylphenyl)piperidin-1-yl]carbonyl}-N,N-dimethylpyridazin-3-amine]: 160 nM.
Regarding `CNc1cc(C(=O)N2CCCC(c3ccc(OC)cc3C(F)(F)F)C2)cnn1` (stereo not shown) [Example 81, 5-({3-[4-Methoxy-2-(trifluoromethyl)phenyl]piperidin-1-yl}carbonyl)-N-methylpyridazin-3-amine], the IC50 is 130 nM.
With `COc1ccc(C2CCCN(C(=O)c3cnnc(N(C)C)c3)C2)c(C(F)(F)F)c1` (stereo not shown) [Example 82, 5-({3-[4-Methoxy-2-(trifluoromethyl)phenyl]piperidin-1-yl}carbonyl)-N,N-dimethylpyridazin-3-amine], the IC50 stood at 210 nM.
With `CCOc1cc(Cl)ccc1C1CCCN(C(=O)c2cnnc(NC)c2)C1` (stereo not shown) [Example 83, 5-{[3-(4-Chloro-2-ethoxyphenyl)piperidin-1-yl]carbonyl}-N-methylpyridazin-3-amine], the 50% inhibitory concentration (IC50) was 170 nM.
Turning to `CCOc1cc(Cl)ccc1C1CCCN(C(=O)c2cnnc(N(C)C)c2)C1` (stereo not shown) [Example 84, 5-{[3-(4-Chloro-2-ethoxyphenyl)piperidin-1-yl]carbonyl}-N,N-dimethylpyridazin-3-amine], the 50% inhibitory concentration (IC50) was determined as 90 nM.
The same measure for `Cc1cc(C(=O)N2CCCC(c3ccc(Cl)cc3C)C2)cnn1` (stereo not shown) [Example 85, 5-{[3-(4-Chloro-2-methylphenyl)piperidin-1-yl]carbonyl}-3-methylpyridazine]: 1140 nM.
The same measure for `Cc1cc(Cl)ccc1C1CCCN(C(=O)c2cn(C)nc2C)C1` (stereo not shown) [Example 87, 3-(4-Chloro-2-methylphenyl)-1-[(1,3-dimethyl-1H-pyrazol-4-yl)carbonyl]piperidine]: 200 nM.
As to `Cc1nn(C)cc1C(=O)N1CCCC(c2ccc(Cl)cc2)C1` (stereo not shown) [Example 88, 3-(4-Chlorophenyl)-1-[(1,3-dimethyl-1H-pyrazol-4-yl)carbonyl]piperidine], the half-inhibitory concentration (IC50) amounted to 1820 nM.
For the compound `Cn1cc(C(=O)N2CCCC(c3ccc(Cl)cc3)C2)cn1` (stereo not shown) [Example 89, 3-(4-Chlorophenyl)-1-[(1-methyl-1H-pyrazol-4-yl)carbonyl]piperidine], the concentration for half-maximal inhibition (IC50) came to 1280 nM.
As for `CCn1cc(C(=O)N2CCCC(c3ccc(Cl)cc3)C2)cn1` (stereo not shown) [Example 90, 3-(4-Chlorophenyl)-1-[(1-ethyl-1H-pyrazol-4-yl)carbonyl]piperidine], the concentration for half-maximal inhibition (IC50) was determined as 660 nM.
On to `CC(C)n1cc(C(=O)N2CCCC(c3ccc(Cl)cc3)C2)cn1` (stereo not shown) [Example 91, 3-(4-Chlorophenyl)-1-{[1-(propan-2-yl)-1H-pyrazol-4-yl]carbonyl}piperidine], for which the half-inhibitory concentration (IC50) stood at 960 nM.
Take `CCn1cc(C(=O)N2CCCC(c3ccc(Cl)cc3C)C2)cn1` (stereo not shown) [Example 92, 3-(4-Chloro-2-methylphenyl)-1-[(1-ethyl-1H-pyrazol-4-yl)carbonyl]piperidine]: the IC50 is 110 nM.
For `Cc1cc(Cl)ccc1C1CCCN(C(=O)c2cnn(C(C)C)c2)C1` (stereo not shown) [Example 93, 3-(4-Chloro-2-methylphenyl)-1-{[1-(propan-2-yl)-1H-pyrazol-4-yl]carbonyl}piperidine], the half-maximal inhibitory concentration (IC50) worked out at 180 nM.
For `Cc1cc(Cl)ccc1C1CCCN(C(=O)c2cnn(C)c2)C1` (stereo not shown) [Example 94, 3-(4-Chloro-2-methylphenyl)-1-[(1-methyl-1H-pyrazol-4-yl)carbonyl]piperidine], the IC50 turned out to be 170 nM.
As to `Cc1cc(Cl)ccc1C1CCCN(C(=O)c2cnn(C)c2N)C1` (stereo not shown) [Example 95, 4-{[3-(4-Chloro-2-methylphenyl)piperidin-1-yl]carbonyl}-1-methyl-1H-pyrazol-5-amine], the half-maximal inhibitory concentration (IC50) was 150 nM.
As to `O=C(c1cn[nH]c1)N1CCCC(c2ccc(Cl)cc2C(F)(F)F)C1` (stereo not shown) [Example 96, 3-[4-Chloro-2-(trifluoromethyl)phenyl]-1-[(1H-pyrazol-4-yl)carbonyl]piperidine], the IC50 amounted to 2440 nM.
Regarding `Cn1cc(C(=O)N2CCCC(c3ccc(Cl)cc3C(F)(F)F)C2)cn1` (stereo not shown) [Example 97, 3-[4-Chloro-2-(trifluoromethyl)phenyl]-1-[(1-methyl-1H-pyrazol-4-yl)carbonyl]piperidine], the IC50 is 100 nM.
`CCn1cc(C(=O)N2CCCC(c3ccc(Cl)cc3C(F)(F)F)C2)cn1` (stereo not shown) [Example 98, 3-[4-Chloro-2-(trifluoromethyl)phenyl]-1-[(1-ethyl-1H-pyrazol-4-yl)carbonyl]piperidine]: the half-inhibitory concentration (IC50) worked out at 170 nM.
Regarding `CC(C)n1cc(C(=O)N2CCCC(c3ccc(Cl)cc3C(F)(F)F)C2)cn1` (stereo not shown) [Example 99, 3-[4-Chloro-2-(trifluoromethyl)phenyl]-1-{[1-(propan-2-yl)-1H-pyrazol-4-yl]carbonyl}piperidine], the IC50 was 330 nM.
For the compound `Cn1cc(C(=O)N2CCCC(c3ccc(Cl)cc3C(F)(F)F)C2)c(N)n1` (stereo not shown) [Example 100, 4-({3-[4-Chloro-2-(trifluoromethyl)phenyl]piperidin-1-yl}carbonyl)-1-methyl-1H-pyrazol-3-amine], the IC50 worked out at 540 nM.
The same measure for `COc1ccc(C2CCCN(C(=O)c3cn(C)nc3C)C2)c(C)c1` (stereo not shown) [Example 101, 1-[(1,3-Dimethyl-1H-pyrazol-4-yl)carbonyl]-3-(4-methoxy-2-methylphenyl)piperidine]: 1030 nM; for `COc1ccc(C2CCCN(C(=O)c3cn(C)nc3N)C2)c(C)c1` (stereo not shown) [Example 102, 4-{[3-(4-Methoxy-2-methylphenyl)piperidin-1-yl]carbonyl}-1-methyl-1H-pyrazol-3-amine]: 1540 nM; for `Cc1nn(C)cc1C(=O)N1CCCC(c2ccc(Cl)cc2C(F)(F)F)C1` (stereo not shown) [Example 103, 3-[4-Chloro-2-(trifluoromethyl)phenyl]-1-[(1,3-dimethyl-1H-pyrazol-4-yl)carbonyl]piperidine]: 490 nM.
In the case of `CN(C)c1cc(C(=O)N2C=C(c3ccc(Cl)cc3)CCC2)ccn1` [Example 104, 4-{[5-(4-Chlorophenyl)-1,2,3,4-tetrahydropyridin-1-yl]carbonyl}-N,N-dimethylpyridin-2-amine], the IC50 stood at 420 nM.
Take `Cc1cc(Cl)ccc1C1=CN(C(=O)c2ccnc(N(C)C)c2)CCC1` [Example 105, 4-{[5-(4-Chloro-2-methylphenyl)-1,2,3,4-tetrahydropyridin-1-yl]carbonyl}-N,N-dimethylpyridin-2-amine]: the IC50 came to 270 nM.
As to `CN(C)c1cc(C(=O)N2C=C(c3ccc(Cl)cc3Cl)CCC2)ccn1` [Example 106, 4-{[5-(2,4-Dichlorophenyl)-1,2,3,4-tetrahydropyridin-1-yl]carbonyl}-N,N-dimethylpyridin-2-amine], the half-maximal inhibitory concentration (IC50) is 1230 nM.
On to `CN(C)c1cc(C(=O)N2CCCCC(c3ccccc3)C2)ccn1` (stereo not shown) [Example 107, N,N-Dimethyl-4-[(3-phenylazepan-1-yl)carbonyl]pyridin-2-amine], for which the half-maximal inhibitory concentration (IC50) worked out at 2970 nM.
The same measure for `CN(C)c1cc(C(=O)N2CCCCC(c3ccc(Cl)cc3)C2)ccn1` (stereo not shown) [Example 108, 4-{[3-(4-Chlorophenyl)azepan-1-yl]carbonyl}-N,N-dimethylpyridin-2-amine]: 3230 nM; for `COc1ccc(C2CCCCN(C(=O)c3ccnc(N(C)C)c3)C2)cc1` (stereo not shown) [Example 109, 4-{[3-(4-Methoxyphenyl)azepan-1-yl]carbonyl}-N,N-dimethylpyridin-2-amine]: 960 nM; for `CNc1cc(C(=O)N2CCCCC(c3ccc(OC)cc3)C2)ccn1` (stereo not shown) [Example 110, 4-{[3-(4-Methoxyphenyl)azepan-1-yl]carbonyl}-N-methylpyridin-2-amine]: 450 nM.
The same measure for `CNc1cc(C(=O)N2CCCCC(c3ccc(Cl)cc3)C2)ccn1` (stereo not shown) [Example 111, 4-{[3-(4-Chlorophenyl)azepan-1-yl]carbonyl}-N-methylpyridin-2-amine]: 430 nM; for `CNc1cc(C(=O)N2CCCCC(c3ccc(OC)cc3)C2)cnn1` (stereo not shown) [Example 112, 5-{[3-(4-Methoxyphenyl)azepan-1-yl]carbonyl}-N-methylpyridazin-3-amine]: 1270 nM; for `CNc1cc(C(=O)N2CCCCC(c3ccc(Cl)cc3)C2)cnn1` (stereo not shown) [Example 113, 5-{[3-(4-Chlorophenyl)azepan-1-yl]carbonyl}-N-methylpyridazin-3-amine]: 930 nM.
